For three compounds, Km and Kd results are on record in PMC4140816, “Differential Sensitivity of Src-Family Kinases to Activation by SH3 Domain Displacement” (PLoS ONE, 2014).

Where “and” joins values, the source holds several entries; their conditions need not be identical. Equal entries are not always repeated. Where two headings read alike, the source gives them in different places.

For one assay, the target named is Hck-YEEI (Homo sapiens, UniProt P08631, Q523E/Q524E/Q525I). Nature of the assay: Km determination, ADP Quest assay, Hck-YEEI. The class given is biochemical. The settings on record: pH 7.4, 25°C, 150 ng/well kinase, mean ±S.E.
The target in a further assay is Lyn-YEEI (Homo sapiens, UniProt P07948, Q509E/Q510E/Q511I). Description: Km determination, ADP Quest assay, Lyn-YEEI. The class given is biochemical. Conditions: pH 7.4, 25°C, 250 ng/well kinase, mean ±S.E.
Another assay addresses Fyn-YEEI (Homo sapiens, UniProt P06241). Nature of the assay: Km determination, ADP Quest assay, Fyn-YEEI. The class given is biochemical. The settings on record: pH 7.4, 25°C, 150 ng/well kinase, mean ±S.E.
A further assay deals with Lyn SH3 domain (Homo sapiens, UniProt P07948). Description: SPR, VSL12 binding to Lyn SH3. The settings on record: biotinylated VSL12 on SA chip, 25°C, duplicate runs. The method, then: The biotinylated peptide was immobilized to 80 Response Units (RU) on the surface of a streptavidin (SA) biosensor chip. The recombinant purified Src SH3 domain proteins were flowed past the peptide over the concentration ranges shown. Association was measured for 180 s, followed by a 300 s dissociation phase.
The C-terminus of each construct was modified by the addition of the sequence […] as encoded by the XhoI site and the His6 tag in the vector. For expression of the SH3 and SH2 domains, E. coli strain Rosetta 2(DE3)pLysS (EMD Millipore) was transformed with each plasmid and cultures were grown at 37°C until the OD600 reached 0.8–1.0. Protein expression was induced with 0.4 mM isopropyl -D-thiogalactopyranoside (IPTG) for 4 h at 25°C. The isolated KDs were expressed as previously described by Seeliger, et al. For purification, cell pellets were resuspended in ion-exchange start buffer (20 mM Tris-HCl, pH 8.5, 5 mM -mercaptoethanol, 10% glycerol), sonicated, and clarified by centrifugation. […] Recombinant purified protein concentrations were quantified by Bradford assay using the BioRad Protein Assay Dye Reagent Concentrate and purified BSA as a reference standard (Pierce).
SPR experiments were performed using a Biacore 3000 Instrument (GE Healthcare) on a streptavidin (SA) biosensor chip. […] Association was measured for 180 s, followed by 300 s of dissociation in HBS-EP running buffer. […]
(In general: SPR reads the build-up and loss of mass on a sensor chip optically.)

A further assay deals with Src-YEEI (Homo sapiens, UniProt P12931). The assay is classed as biochemical. Conditions: pH 7.4; read-out: Km YIYGSFK.
Setting [1] is: peptide substrate at Km, n = 3, read-out: Km ATP.
[2] abbreviates: ATP held constant at 200 (µM), n = 4, read-out: Km YIYGSFK.

Chain of Fyn-YEEI (P06241 with tags, fused parts or gaps): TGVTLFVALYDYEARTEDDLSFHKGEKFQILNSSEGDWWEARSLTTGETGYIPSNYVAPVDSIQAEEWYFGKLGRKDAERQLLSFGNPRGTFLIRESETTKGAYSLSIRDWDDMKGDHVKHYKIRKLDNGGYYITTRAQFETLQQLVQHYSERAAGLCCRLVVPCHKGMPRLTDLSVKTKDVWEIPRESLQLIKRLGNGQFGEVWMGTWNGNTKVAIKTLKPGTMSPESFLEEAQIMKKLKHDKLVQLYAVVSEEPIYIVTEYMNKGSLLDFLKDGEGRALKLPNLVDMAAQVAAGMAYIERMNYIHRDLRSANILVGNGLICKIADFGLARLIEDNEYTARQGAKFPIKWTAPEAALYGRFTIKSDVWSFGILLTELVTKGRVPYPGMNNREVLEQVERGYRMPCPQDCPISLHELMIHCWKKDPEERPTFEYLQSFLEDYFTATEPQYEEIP
Chain of Lyn-YEEI (P07948 63-512 Q509E/Q510E/Q511I limits assumed): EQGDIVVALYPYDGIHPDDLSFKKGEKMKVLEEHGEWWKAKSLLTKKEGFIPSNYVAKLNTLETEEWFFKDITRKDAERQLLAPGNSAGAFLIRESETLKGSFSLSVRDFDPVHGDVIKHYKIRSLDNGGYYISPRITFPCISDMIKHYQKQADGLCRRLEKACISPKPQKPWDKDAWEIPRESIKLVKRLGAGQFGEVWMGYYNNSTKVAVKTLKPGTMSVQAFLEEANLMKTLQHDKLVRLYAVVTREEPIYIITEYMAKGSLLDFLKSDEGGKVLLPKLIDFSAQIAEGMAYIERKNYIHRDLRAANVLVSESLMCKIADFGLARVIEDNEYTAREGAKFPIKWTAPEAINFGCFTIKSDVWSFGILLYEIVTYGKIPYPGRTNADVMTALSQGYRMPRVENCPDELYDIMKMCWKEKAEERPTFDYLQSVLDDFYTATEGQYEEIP
Chain of Lyn SH3 domain (P07948 63-123 limits assumed): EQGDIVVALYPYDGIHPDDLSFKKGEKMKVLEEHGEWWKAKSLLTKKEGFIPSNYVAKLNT
Chain of Hck-YEEI (P08631 78-526 Q523E/Q524E/Q525I limits assumed): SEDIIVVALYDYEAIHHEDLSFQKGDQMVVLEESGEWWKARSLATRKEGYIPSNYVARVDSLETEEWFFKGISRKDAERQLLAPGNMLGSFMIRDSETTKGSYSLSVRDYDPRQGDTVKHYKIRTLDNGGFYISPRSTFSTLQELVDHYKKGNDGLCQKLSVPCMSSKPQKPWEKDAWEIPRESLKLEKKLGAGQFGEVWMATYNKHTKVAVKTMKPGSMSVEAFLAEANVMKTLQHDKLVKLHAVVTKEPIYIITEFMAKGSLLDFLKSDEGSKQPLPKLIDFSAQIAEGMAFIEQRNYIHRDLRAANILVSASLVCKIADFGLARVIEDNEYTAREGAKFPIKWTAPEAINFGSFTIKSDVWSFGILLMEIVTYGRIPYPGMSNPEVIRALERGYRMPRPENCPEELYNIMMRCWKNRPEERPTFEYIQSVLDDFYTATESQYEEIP

Regarding `Nc1ncnc2c1ncn2[C@@H]1O[C@H](COP(=O)(O)OP(=O)(O)OP(=O)(O)O)[C@@H](O)[C@H]1O` [ATP], the figures for the Michaelis constant (Km) on Hck-YEEI (setting [1]), at Lyn-YEEI (setting [1]) and on Fyn-YEEI (setting [1]) were 55.8 ± 18.5 µM, 31.1 ± 9.7 µM and 49.7 ± 8.2 µM, respectively.
`CC(C)C[C@H](NC(=O)[C@H](CO)NC(=O)[C@@H](N)C(C)C)C(=O)N[C@@H](C)C(=O)N[C@@H](CCCN=C(N)N)C(=O)N[C@@H](CCCN=C(N)N)C(=O)N1CCC[C@H]1C(=O)N[C@@H](CC(C)C)C(=O)N1CCC[C@H]1C(=O)N1CCC[C@H]1C(=O)N[C@@H](CC(C)C)C(=O)N1CCC[C@H]1C(=O)O` [VSL12]: the Kd (in general, the concentration at which binding is half-saturated) on Lyn SH3 domain (31.25-250 nM SH3, 1:1 Langmuir fit, χ^2 1.850, read-out: Kinetic KD) amounted to 0.647 µM; at Lyn SH3 domain (31.25-250 nM SH3, steady state model, χ^2 0.225, read-out: Steady-State KD), 0.562 µM.
Take “YIYGSFK [SFK substrate peptide; Anaspec]”: the Km (as a rule, the concentration of substrate that gives half-maximal velocity) on Hck-YEEI (setting [2]) was 83.8 ± 12.5 µM; at Src-YEEI it was 159 µM; at Lyn-YEEI (setting [2]), 83.2 ± 4.9 µM; on Fyn-YEEI (setting [2]), 70 µM and 69.6 µM.
